Results on three compounds are retold here after patent US5189033A, “Tricyclic heterocycles” (Imperial Chemical Industries PLC, priority 1991, dated 1993).

Read-outs that look alike come from different tables or passages of the source.

Assay [1] concerns the target T1, EP1 receptors (PGE2-induced contractions of the ileum) (Cavia porcellus, UniProt A0A286XHJ6).
T1 construct: ileum was immersed in oxygenated Krebs solution containing indomethacin; from tissue; host or cells: guinea pig ileum
T1 sequence (A0A286XHJ6 1-405): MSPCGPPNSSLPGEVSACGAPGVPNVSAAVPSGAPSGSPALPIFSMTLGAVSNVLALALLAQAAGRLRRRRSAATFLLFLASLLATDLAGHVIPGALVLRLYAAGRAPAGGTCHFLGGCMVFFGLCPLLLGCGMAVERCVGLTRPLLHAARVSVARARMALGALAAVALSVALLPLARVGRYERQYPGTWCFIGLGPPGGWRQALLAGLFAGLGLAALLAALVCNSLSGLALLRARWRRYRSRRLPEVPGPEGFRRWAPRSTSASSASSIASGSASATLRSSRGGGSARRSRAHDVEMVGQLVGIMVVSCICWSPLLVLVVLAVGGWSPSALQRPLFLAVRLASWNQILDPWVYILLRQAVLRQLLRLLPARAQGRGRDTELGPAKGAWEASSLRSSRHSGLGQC
Description: Test (a): in-vitro guinea pig ileum assay, inhibition of PGE2-induced contractions. The conditions noted are these: PGE2-induced contraction of guinea pig ileum, read-out: pA2 value (converted). The protocol: (a) an in-vitro guinea pig ileum assay which assesses the inhibitory properties of a test compound against PGE2 -induced contractions of the ileum; ileum was immersed in oxygenated Krebs solution containing indomethacin (4 μg/ml) and atropine (1 μM) and which was maintained at 37° C.; the ileum was subject to a resting tension of 1 g; a control dose response curve for PGE2 -induced contraction of the ileum was obtained; test compound (dissolved in dimethylsulphoxide) was added to the Krebs solution and a dose response curve for the PGE2 -induced contraction of the ileum in the presence of the test compound was obtained; the pA2 value for the test compound was calculated;
Prostanoid receptors and in particular receptors for PGE2 have been tentatively characterised by Kennedy et al. (Advances in Prostaglandin, Thromboxane and Leukotriene Research, 1983, 11, 327).

Assay [2] relates to writhing induced by the intraperitoneal administration of phenylbenzoquinone. Description: Test (c): in-vivo assay in mice, writhing induced by phenylbenzoquinone (PBQ). The conditions noted are these: at 100 mg/kg, oral dosing. The text has this:
(c) an in-vivo assay in mice which assesses the inhibitory properties of a test compound against writhing induced by the intraperitoneal administration of phenylbenzoquinone (hereinafter PBQ) using the procedure disclosed in European Patent Application No. 0218077.
For orientation: Writhing tests count abdominal constrictions after an irritant is injected.

Assay [3] relates to writhing induced by the concomitant administration of PGE2 and bradykinin. Description: Test (b): in-vivo assay in mice, writhing induced by PGE2 and bradykinin. The conditions noted are these: Mus musculus, oral dosing, read-out: ED50 for antagonism of the writhing response.
The next assay has as its system PGE2 receptors. The conditions noted are these: cited from earlier work.

Take `O=C(O)c1cccc(CN2Cc3ccccc3Oc3ccc(Cl)cc32)c1` [Example 1, 3-(8-chloro-10,11-dihydrodibenzo[b,f]-[1,4]oxazepin-10-ylmethyl)benzoic acid]: the Kb in assay [1] was 39.8 nM. In assay [2], the “activity in Test (c)” value was “significant activity”.
Broadly, the ED50 is the dose at which the effect has come halfway, by size or by number of responders. Regarding `O=C(O)c1ccc(CN2Cc3ccccc3Oc3ccc(Cl)cc32)cc1` [Example 2, 4-(8-chloro-10,11-dihydrodibenzo[b,f][1,4]oxazepin-10-ylmethyl)-benzoic acid], the Kb in assay [1] is 100 nM. Further, the ED50 in assay [3] came to 19 mg/kg.
Consider `CC(=O)NNC(=O)N1Cc2ccccc2Oc2ccc(Cl)cc21` [SC-19220], for which the “block of the effect of PGE2” value with PGE2 receptors (cat trachea or chick ileum) is listed as “not on other tissues”; in the assay with PGE2 receptors (guinea pig ileum or dog fundus) it was “blocks the effect of PGE2”.
